What was measured:
[1] = tested on: MCF-7 cells; assay: Inhibition of in vitro human breast tumor cell growth (direct cell counts), ER-positive cells; format: cell-based; settings: MCF-7 (ER-positive), 6 days incubation
Experimental: (§1) The in vitro antiproliferative effects of (−)-cis-6-phenyl-5-[4-(2-pyrrolidin-1-yl-ethoxy)-phenyl]-5,6,7,8-tetrahydro-naphthalene-2-ol (PPTN) were tested using two types of human breast cancer cell lines: first, MCF-7 cells, which contain ER as well as progesterone receptors (PgR), and second, MDA-MB-231 cells, which lack ER and PgR, and enable the determination of an effect that is independent of the ER mechanism. The effect of PPTN on the growth of these different cell lines was determined by incubation of the cells with various compound concentrations for 6 days.
(§2) The antiproliferative effects were then determined by direct cell counts. PPTN inhibited the growth of the ER-positive cell line MCF-7.

[2] = tested on: MDA-MB-231 cells; assay: Inhibition of in vitro human breast tumor cell growth (direct cell counts), ER-negative cells; format: cell-based; settings: MDA-MB-231 (ER-negative), 6 days incubation
Experimental: as §1, §2

IC50 for growth inhibition [1]: 3 to 5×10^−11 M
SMILES: Oc1ccc2c(c1)CC[C@H](c1ccccc1)[C@@H]2c1ccc(OCCN2CCCC2)cc1 [PPTN, (−)-cis-6-phenyl-5-[4-(2-pyrrolidin-1-yl-ethoxy)-phenyl]-5,6,7,8-tetrahydro-naphthalene-2-ol]
inhibition of cell proliferation [2]: did not inhibit cell proliferation
